Assay results reported in patent US10144732B2 (BIOGEN MA INC., priority 2014, dated 2018).

The compounds below were run against T1, Human ATX protein (Homo sapiens, UniProt Q13822) (assay: ATX biochemical assay (FRET, FS-3 substrate)). Conditions: FRET assay, FS-3 2 μM, ATX 1.0 μg/mL, 30 minutes preincubation, 2 hours reaction at room temperature; read-out: IC50.
T1 construct: made in house
Excerpt: ATX (Autotaxin) is a 125 KDa glycoprotein with lysophospholipase D (LPLD) activity that generates the bioactive lipid lysophosphatidic acid (LPA) from lysophosphatidylcholine (LPC). The ATX biochemical assay utilizes a FRET (fluorescence resonance energy transfer) technology platform. The fluorescence signal of FRET substrate FS-3 is quenched due to intra-molecular FRET of a fluorophore to a non-fluorescing quencher (Ferguson, C. G., et al., Org Lett. 2006 May 11; 8(10): 2023-2026, which is incorporated by reference in its entirety). ATX catalyzes the hydrolysis of the substrate which separates the dabsyl quencher from the fluorescein reporter, which becomes fluorescent. The reaction is monitored by a SpectraMax M5 (Molecular Devices, Sunnyvale, Calif.) with at excitation wavelength 485 nm and emission wavelength […].
Fatty acid free-BSA (Sigma A8806): 10 mg/mL in H2O, stored at 4° C.
2×ATX assay buffer: 100 mM Tris, 280 mM NaCl, 10 mM KCl, 2 mM CaCl2, 2 mM MgCl2, pH 7.4.
Human ATX protein: expressed and purified in house. Stored at −80° C.
Substrate FS-3 (Echelon, L-2000): 100 μg in 77.74 μL H2O (1 mM stock), stored at −20° C.
384-well flat bottom plates—Corning #3575.
Compound dilution—All compounds were provided at 10 mM in 100% DMSO. In the first well, 2 μL of 10 mM compound was added to 78 μL of DMSO (1:40 dilution). In subsequent wells 3-fold dilution (total 10 dilutions) were performed.
1×ATX assay buffer was made up with a final concentration of 1 mg/mL fatty acid free-BSA using 2×ATX assay buffer, 10 mg/ml fatty acid free-BSA and ddH2O.
[…]. The final concentration of ATX in the reaction as 1.0 μg/mL.
2 μL per well of compounds was transferred to provide the desired concentration. The plate was centrifuged, then incubated at room temperature for 30 minutes on the shaker.
FS-3 was diluted with 1×ATX assay buffer to a concentration of FS-3 of 10 μM (5×). Then, 10 μL was added per well to the assay plate. The final concentration of FS-3 in the reaction was 2 μM. The plate was centrifuged. The plate was kept shaking at room temperature for 2 hours. Because FS-3 substrate is light sensitive, plates were kept covered and protected from light.
Fluorescence was measured using SpectraMax M5 (excitation at 485 nm/emission at 538 nm, top read).
In the case of `O=C(C1CCCCC1)N1CCc2c(C(F)(F)F)nn(Cc3ccc(Cl)cc3F)c2C1` [Example 1-6, (1-(4-Chloro-2-fluorobenzyl)-3-(trifluoromethyl)-4,5-dihydro-1H-pyrazolo[3,4-c]pyridin-6(7H)-yl) (cyclohexyl)methanone], the IC50 is reported as over 10 µM. Compound `O=C(Cc1ccncc1)N1CCc2c(C(F)(F)F)nn(Cc3ccc(Cl)cc3F)c2C1` [Example 1-7, 1-(1-(4-Chloro-2-fluorobenzyl)-3-(trifluoromethyl)-4,5-dihydro-1H-pyrazolo[3,4-c]pyridin-6(7H)-yl)-2-(pyridin-4-yl)ethanone] has an IC50 of over 10 µM. In the case of `CCOC(=O)C1CCC(CC(=O)N2CCc3c(C(F)(F)F)nn(Cc4ccc(Cl)cc4)c3C2)CC1` (stereo not shown) [Example 1-8, Ethyl 4-(2-(1-(4-chlorobenzyl)-3-(trifluoromethyl)-4,5-dihydro-1H-pyrazolo[3,4-c]pyridin-6(7H)-yl)-2-oxoethyl)cyclohexanecarboxylate], the IC50 is reported as at most 0.1 µM. `CCOC(=O)C1CCC(CC(=O)N2CCc3c(C(F)(F)F)nn(Cc4ccc(Cl)cc4Cl)c3C2)CC1` (stereo not shown) [Example 1-9, Ethyl 4-(2-(1-(2,4-dichlorobenzyl)-3-(trifluoromethyl)-4,5-dihydro-1H-pyrazolo[3,4-c]pyridin-6(7H)-yl)-2-oxoethyl)cyclohexanecarboxylate] showed an IC50 of at most 0.1 µM. Work on `CCOC(=O)C1CCC(CC(=O)N2CCc3c(C(F)(F)F)nn(Cc4ccc(C(F)(F)F)cc4)c3C2)CC1` (stereo not shown) [Example 1-10, Ethyl 4-(2-oxo-2-(3-(trifluoromethyl)-1-(4-(trifluoromethyl)benzyl)-4,5-dihydro-1H-pyrazolo[3,4-c]pyridin-6(7H)-yl)ethyl)cyclohexanecarboxylate] yielded an IC50 of at most 0.1 µM. Compound `COC(=O)c1ccc(CC(=O)N2CCc3c(C(F)(F)F)nn(Cc4ccc(Cl)cc4F)c3C2)cc1` [Example 1-11, Methyl 4-(2-(1-(4-chloro-2-fluorobenzyl)-3-(trifluoromethyl)-4,5-dihydro-1H-pyrazolo[3,4-c]pyridin-6(7H)-yl)-2-oxoethyl)benzoate] has an IC50 of at most 0.1 µM. With `O=C(Cc1ccc(F)cc1)N1CCc2c(C(F)(F)F)nn(Cc3ccc(Cl)cc3F)c2C1` [Example 1-12, 1-(1-(4-Chloro-2-fluorobenzyl)-3-(trifluoromethyl)-4,5-dihydro-1H-pyrazolo[3,4-c]pyridin-6(7H)-yl)-2-(4-fluorophenyl)ethanone] the IC50 was at most 0.1 µM. In the case of `CCOC(=O)C1CCC(CC(=O)N2CCc3c(C(F)(F)F)nn(Cc4ccccc4)c3C2)CC1` (stereo not shown) [Example 1-13, Ethyl 4-(2-(1-benzyl-3-(trifluoromethyl)-4,5-dihydro-1H-pyrazolo[3,4-c]pyridin-6(7H)-yl)-2-oxoethyl)cyclohexanecarboxylate], the IC50 is reported as at most 0.1 µM. `O=C(CCc1nc2ccccc2s1)N1CCc2c(C(F)(F)F)nn(Cc3ccc(F)cc3)c2C1` [Example 1-14, 3-(Benzo[d]thiazol-2-yl)-1-(1-(4-fluorobenzyl)-3-(trifluoromethyl)-4,5-dihydro-1H-pyrazolo[3,4-c]pyridin-6(7H)-yl)propan-1-one] was tested, and the IC50 was at most 0.1 µM. In the case of `O=C(CC1CCC(O)CC1)N1CCc2c(C(F)(F)F)nn(Cc3ccc(Cl)cc3F)c2C1` (stereo not shown) [Example 1-15, 1-(1-(4-Chloro-2-fluorobenzyl)-3-(trifluoromethyl)-4,5-dihydro-1H-pyrazolo[3,4-c]pyridin-6(7H)-yl)-2-(4-hydroxycyclohexyl)ethanone], the IC50 is reported as at most 0.1 µM. For `CCOC(=O)C1CCC(CC(=O)N2CCc3c(C(F)(F)F)nn(CC4CCCCC4)c3C2)CC1` (stereo not shown) [Example 1-16, Ethyl 4-(2-(1-(cyclohexylmethyl)-3-(trifluoromethyl)-4,5-dihydro-1H-pyrazolo[3,4-c]pyridin-6(7H)-yl)-2-oxoethyl)cyclohexanecarboxylate], the IC50 was at most 0.1 µM. In the case of `CCOC(=O)C1CCC(CC(=O)N2CCc3cnn(Cc4ccc(F)cc4)c3C2)CC1` (stereo not shown) [Example 1-17, Ethyl 4-(2-(1-(4-fluorobenzyl)-4,5-dihydro-1H-pyrazolo[3,4-c]pyridin-6(7H)-yl)-2-oxoethyl)cyclohexanecarboxylate], the IC50 is reported as at most 0.1 µM. `CCOC(=O)C1CCC(CC(=O)N2CCc3c(C(F)(F)F)nn(Cc4cccc(F)c4)c3C2)CC1` (stereo not shown) [Example 1-18, Ethyl 4-(2-(1-(3-fluorobenzyl)-3-(trifluoromethyl)-4,5-dihydro-1H-pyrazolo[3,4-c]pyridin-6(7H)-yl)-2-oxoethyl)cyclohexanecarboxylate] was tested, and the IC50 was at most 0.1 µM. Work on `CCOC(=O)C1CCC(CC(=O)N2CCc3c(C(F)(F)F)nn(Cc4ccccc4F)c3C2)CC1` (stereo not shown) [Example 1-19, Ethyl 4-(2-(1-(2-fluorobenzyl)-3-(trifluoromethyl)-4,5-dihydro-1H-pyrazolo[3,4-c]pyridin-6(7H)-yl)-2-oxoethyl)cyclohexanecarboxylate] yielded an IC50 of at most 0.1 µM. `O=C(C1CCn2cncc2C1)N1CCc2c(C(F)(F)F)nn(Cc3ccc(F)cc3)c2C1` (stereo not shown) [Example 1-20, (1-(4-Fluorobenzyl)-3-(trifluoromethyl)-4,5-dihydro-1H-pyrazolo[3,4-c]pyridin-6(7H)-yl)(5,6,7,8-tetrahydroimidazo[1,5-a]pyridin-7-yl)methanone] gave an IC50 of over 10 µM. Compound `CC1CCC(CC(=O)N2CCc3c(C(F)(F)F)nn(Cc4ccc(Cl)cc4F)c3C2)CC1` (stereo not shown) [Example 1-21, 1-(1-(4-Chloro-2-fluorobenzyl)-3-(trifluoromethyl)-4,5-dihydro-1H-pyrazolo[3,4-c]pyridin-6(7H)-yl)-2-(4-methylcyclohexyl)ethanone] has an IC50 of at most 0.1 µM. `COC(=O)C1CCC(C(=O)N2CCc3c(C(F)(F)F)nn(Cc4ccc(F)cc4)c3C2)CC1` (stereo not shown) [Example 1-22, Methyl 4-(1-(4-fluorobenzyl)-3-(trifluoromethyl)-4,5,6,7-tetrahydro-1H-pyrazolo[3,4-c]pyridine-6-carbonyl)cyclohexanecarboxylate] was tested, and the IC50 was over 10 µM. `CCOC(=O)[C@H]1CC[C@H](CC(=O)N2CCc3c(C(F)(F)F)nn(C4CCCCC4)c3C2)CC1` [Example 1-24, trans-Ethyl 4-(2-(1-cyclohexyl-3-(trifluoromethyl)-4,5-dihydro-1H-pyrazolo[3,4-c]pyridin-6(7H)-yl)-2-oxoethyl)cyclohexanecarboxylate] gave an IC50 of 0.25 to 0.5 µM. With `CCOC(=O)[C@H]1CC[C@H](CC(=O)N2CCc3c(C(F)(F)F)nn(Cc4ccc(C)cc4)c3C2)CC1` [Example 1-25, trans-Ethyl 4-(2-(1-(4-methylbenzyl)-3-(trifluoromethyl)-4,5-dihydro-1H-pyrazolo[3,4-c]pyridin-6(7H)-yl)-2-oxoethyl)cyclohexanecarboxylate] the IC50 was at most 0.1 µM. Work on `CCOC(=O)[C@H]1CC[C@H](CC(=O)N2CCc3c(C(F)(F)F)nn(Cc4ccc(OC)cc4)c3C2)CC1` [Example 1-26, trans-Ethyl 4-(2-(1-(4-methoxylbenzyl)-3-(trifluoromethyl)-4,5-dihydro-1H-pyrazolo[3,4-c]pyridin-6(7H)-yl)-2-oxoethyl)cyclohexanecarboxylate] yielded an IC50 of at most 0.1 µM. Work on `COC(=O)C1CC2CCC(C1)C2CC(=O)N1CCc2c(C(F)(F)F)nn(Cc3ccc(Cl)cc3F)c2C1` (stereo not shown) [Example 1-27, Methyl 8-(2-(1-(4-chloro-2-fluorobenzyl)-3-(trifluoromethyl)-4,5-dihydro-1H-pyrazolo[3,4-c]pyridin-6(7H)-yl)-2-oxoethyl)bicyclo[3.2.1]octane-3-carboxylate] yielded an IC50 of at most 0.1 µM. With `CCOC(=O)[C@H]1CC[C@H](CC(=O)N2CCc3c(C(F)(F)F)nn(CCc4ccccc4)c3C2)CC1` [Example 1-28, trans-Ethyl 4-(2-oxo-2-(1-phenethyl-3-(trifluoromethyl)-4,5-dihydro-1H-pyrazolo[3,4-c]pyridin-6(7H)-yl)ethyl)cyclohexanecarboxylate] the IC50 was 0.1 to 0.25 µM. For `O=C(CC1CCOCC1)N1CCc2c(C(F)(F)F)nn(Cc3ccc(Cl)cc3F)c2C1` [Example 1-29, 1-(1-(4-Chloro-2-fluorobenzyl)-3-(trifluoromethyl)-4,5-dihydro-1H-pyrazolo[3,4-c]pyridin-6(7H)-yl)-2-(tetrahydro-2H-pyran-4-yl)ethanone], the IC50 was at most 0.1 µM. `O=C(CC1CCOCC1)N1CCc2c(C(F)(F)F)nn(Cc3ccc(F)cc3)c2C1` [Example 1-30, 1-(1-(4-Fluorobenzyl)-3-(trifluoromethyl)-4,5-dihydro-1H-pyrazolo[3,4-c]pyridin-6(7H)-yl)-2-(tetrahydro-2H-pyran-4-yl)ethanone] showed an IC50 of at most 0.1 µM. `O=C(CCc1nnn[nH]1)N1CCc2c(C(F)(F)F)nn(Cc3ccc(Cl)cc3F)c2C1` [Example 1-31, 1-(1-(4-Chloro-2-fluorobenzyl)-3-(trifluoromethyl)-4,5-dihydro-1H-pyrazolo[3,4-c]pyridin-6(7H)-yl)-3-(1H-tetrazol-5-yl)propan-1-one] showed an IC50 of at most 0.1 µM.
